# Laboratory results reported in US20250206714A1, “COMPOSITIONS AND METHODS FOR TREATMENT OF INFLAMMATORY DISEASES” (Invea Therapeutics, Inc., priority 2022, published 2025).
# Tests used:
# [1] = target: T1, CYP 2C19 (Homo sapiens, UniProt P33261); assay: Metabolic stability in human liver microsomes with CYP 2C19 inhibitor Nootkatone; format: in vitro ADME; conditions: 1 μM + Nootkatone (20 μM)
# T1 construct: The experiment was conducted in human liver microsomes; from tissue; host or cells: human liver microsomes
# [2] = in vitro; conditions: for % rem @ 5 min / % rem @ 15 min / % rem @ 30 min / % rem @ 45 min: 1 µM; for % rem @ 5 min / % rem @ 15 min / % rem @ 30 min / % rem @ 45 min / half-life at 1 µM / microsomal CLint at 1 μM: pH 7.4; for half-life at 1 µM / microsomal CLint at 1 μM: microsomes
# Description: All the tubes were pre-incubated at 37 t 1° C. for 5 min in a shaking water bath. Tubes of NADPH solution (10 mM) were similarly pre-incubated in similar conditions. After pre-incubation, 20 μL NADPH solution (10 mM) was added to the T0, T5, T15, T30, and T45 tubes, and 20 μL of buffer was added to the TControl tube which makes the final concentration to 1 μM respectively. T0 was immediately quenched with 200 μL of quenching solution containing warfarin as internal standard (IS). Similarly, at the end of the incubation period (5, 15, 30, and 45 minutes) of respective tubes, 200 μL of quenching solution containing warfarin as internal standard (IS) was added to each tube to stop the reaction. Resulting samples were centrifuged at 3220 g (relative centrifugal force) for 20 min. Supernatant (200 μL) from each reaction tube was taken for LC-MS/MS analysis.
# [3] = Metabolic stability assay in human liver microsomes in the presence of specific cytochrome P450 inhibitors (arm without inhibitor, summary statements)
# [4] = test system: IL-1β; assay: In vitro inhibition of production of IL-1β in PMA-differentiated THP-1 cells (LPS + ATP, ELISA); format: cell-based, Human; conditions: THP-1 derived macrophages
# Description: The procedures detailed here can be utilized for testing all compounds of the disclosure.
# Human monocytic THP-1 cells were treated with phorbol 12-myristate 13 acetate (PMA) (100 nM) overnight to differentiate monocytic cells into macrophages. Then, after 24 hours of rest, the differentiated cells were incubated with test compounds for 12 hours at concentrations 0.01, 0.1, 1, 10, 30, and 50 μM. Cells were then washed once with PBS and primed with E. coli LPS (0.1 μg/ml) for 4 h followed by stimulation with ATP (5 μM) for an additional 30 min. The cell culture supernatants were then collected and OD values for IL-1β levels were measured by ELISA. The standard curve (OD VS concentration) for IL-1β was also plotted and used to determine the IL-1β concentration for the OD values. The percentage of inhibition of IL-1β was calculated using the formula: […]
# The percentage IL-1β inhibition at different compound concentrations were plotted in a sigmoid curve and IC50 values were interpolated in Graphpad Prism. Cell death was evaluated by propidium iodide staining and OD was measured at 490 nm. Cell viability was estimated with respect to DMSO control.
# [5] = target: T2, CYP 1A2 (Homo sapiens, UniProt P05177); assay: Metabolic stability in human liver microsomes with CYP 1A2 inhibitor Furafylline; format: in vitro ADME; conditions: 1 μM + Furafylline (20 μM)
# T2 construct: The experiment was conducted in human liver microsomes; from tissue; host or cells: human liver microsomes
# T2 sequence (P05177 1-516): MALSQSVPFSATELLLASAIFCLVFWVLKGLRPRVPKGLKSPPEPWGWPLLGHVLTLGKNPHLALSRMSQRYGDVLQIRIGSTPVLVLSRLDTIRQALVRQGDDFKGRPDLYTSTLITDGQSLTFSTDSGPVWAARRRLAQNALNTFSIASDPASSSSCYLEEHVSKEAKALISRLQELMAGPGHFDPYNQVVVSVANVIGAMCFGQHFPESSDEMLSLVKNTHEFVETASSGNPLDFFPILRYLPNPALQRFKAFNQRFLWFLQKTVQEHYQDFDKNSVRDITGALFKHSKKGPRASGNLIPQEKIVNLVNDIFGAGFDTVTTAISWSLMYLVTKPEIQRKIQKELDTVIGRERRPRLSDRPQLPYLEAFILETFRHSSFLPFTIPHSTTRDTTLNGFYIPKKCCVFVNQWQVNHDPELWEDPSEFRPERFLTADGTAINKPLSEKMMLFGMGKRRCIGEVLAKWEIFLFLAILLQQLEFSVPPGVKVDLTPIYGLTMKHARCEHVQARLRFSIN
# [6] = test system: MDR1 (P-gp); assay: in vitro; set-up: Papp A→B at 60 min / Papp B→A at 60 min / efflux ratio at 60 min / recovery at 60 min / % recovery Apical concentration-Basal concentration / % recovery Basal concentration-Apical concentration: dose or concentration left out as unconfirmed; conditions: dog
# Description: (§1) Digoxin is used as reference and lucifer yellow is used as the integrity marker. […] Papp, efflux ratio and percent recovery are calculated.
# [7] = test system: MDR1; assay: in vitro; set-up: Papp A→B at 60 min / Papp B→A at 60 min / efflux ratio at 60 min / recovery at 60 min / % recovery Apical concentration-Basal concentration / % recovery Basal concentration-Apical concentration: dose or concentration left out as unconfirmed; conditions: dog, MDCK-MDR1
# Description: as §1
# [8] = human liver microsomes, 1 μM, no inhibitor
# [9] = human, human liver microsomes, pH 7.4
# T1 sequence (P33261 whole entry): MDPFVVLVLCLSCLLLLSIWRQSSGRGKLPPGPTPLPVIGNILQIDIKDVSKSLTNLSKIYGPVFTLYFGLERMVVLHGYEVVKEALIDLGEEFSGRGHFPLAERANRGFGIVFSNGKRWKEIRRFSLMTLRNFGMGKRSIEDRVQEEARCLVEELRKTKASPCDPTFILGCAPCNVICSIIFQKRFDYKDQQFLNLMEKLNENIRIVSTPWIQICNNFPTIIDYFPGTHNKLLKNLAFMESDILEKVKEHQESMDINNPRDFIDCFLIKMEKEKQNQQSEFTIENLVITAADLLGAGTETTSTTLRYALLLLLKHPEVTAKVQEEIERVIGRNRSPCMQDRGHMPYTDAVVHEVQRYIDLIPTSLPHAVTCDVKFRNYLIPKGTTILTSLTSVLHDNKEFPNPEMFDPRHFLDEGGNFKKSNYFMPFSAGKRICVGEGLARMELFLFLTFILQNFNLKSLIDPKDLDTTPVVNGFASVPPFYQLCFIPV
compound,measurement,setting,value
"O=C1Nc2ccccc2N(C(=O)CCl)c2ccc(F)cc21 [Compound 6, 5-(2-chloroacetyl)-2-fluoro-5,10-dihydro-11H-dibenzo[b,e][1,4]diazepin-11-one]",% rem @ 5 min,[1],~100%
same,% rem @ 15 min,[1],98.6%
same,% rem @ 30 min,[1],84.6%
same,% rem @ 45 min,[1],58.7%
same,half-life at 1 µM,"[1]; pH 7.4, with Nootkatone 20 μM",0.91 h
same,microsomal CLint at 1 μM,"[1]; pH 7.4, with Nootkatone 20 μM, read-out: mCLint",25.4 µL/min/mg
same,stability / metabolism by liver microsomes (in words),[2],medium to highly stability
same,% rem @ 5 min,[2]; human,93.5%
same,% rem @ 15 min,[2]; human,92.9%
same,% rem @ 30 min,[2]; human,91.3%
same,% rem @ 45 min,[2]; human,67.8%
same,half-life at 1 µM,[2]; human,1.6 h
same,microsomal CLint at 1 μM,[2]; human,14.4 µL/min/mg
same,% rem @ 5 min,[2]; mouse,~100%
same,% rem @ 15 min,[2]; mouse,~100%
same,% rem @ 30 min,[2]; mouse,79.3%
same,% rem @ 45 min,[2]; mouse,59.8%
same,half-life at 1 µM,[2]; mouse,0.95 h
same,microsomal CLint at 1 μM,[2]; mouse,24.3 µL/min/mg
same,% rem @ 5 min,[2]; rat,98.7%
same,% rem @ 15 min,[2]; rat,83.1%
same,% rem @ 30 min,[2]; rat,75.3%
same,% rem @ 45 min,[2]; rat,74.0%
same,half-life at 1 µM,[2]; rat,1.58 h
same,microsomal CLint at 1 μM,[2]; rat,14.6 µL/min/mg
same,stability in human liver microsomes (in words),[3]; human liver microsomes,medium to highly stability
same,degradation,"[3]; human liver microsomes, in presence of specific CYP inhibitors",40-45%
same,% rem @ 5 min,[3]; [8],93.5%
same,% rem @ 15 min,[3]; [8],92.9%
same,% rem @ 30 min,[3]; [8],91.3%
same,% rem @ 45 min,[3]; [8],67.8%
same,half-life at 1 µM,[3]; [9],1.6 h
same,microsomal CLint at 1 μM,[3]; [9],14.4 µL/min/mg
same,degradation,"[3]; incubated in human liver microsomes, no inhibitor",~35%
same,"IL-1β levels under in vitro conditions (FIG. 3, percentage of cytokine inhibition against concentration)",[4],dose dependent decrease in IL-1β levels
same,% rem @ 5 min,[5],96.8%
same,% rem @ 15 min,[5],87.7%
same,% rem @ 30 min,[5],66.9%
same,% rem @ 45 min,[5],63.2%
same,half-life at 1 µM,"[5]; pH 7.4, with Furafylline 20 μM",1.03 h
same,microsomal CLint at 1 μM,"[5]; pH 7.4, with Furafylline 20 μM, read-out: mCLint",22.5 µL/min/mg
same,efflux ratio at 60 min,[6]; MDCK-MDR1,1.22
same,recovery at 60 min,"[6]; MDCK-MDR1, % recovery Apical concentration-Basal concentration",49.1%
same,recovery at 60 min,"[6]; MDCK-MDR1, % recovery Basal concentration-Apical concentration",~100%
same,Papp A→B at 60 min,[7],26 ×10⁻⁶ cm/s
same,"Papp A→B at 60 min, 5 µM",[7],26 ×10⁻⁶ cm/s
same,Papp B→A at 60 min,[7],31.6 ×10⁻⁶ cm/s
same,"efflux ratio at 60 min, 5 µM",[7],< 2
